Key:
Experiment in all cases: Test C preemergence
Type in all cases: in vivo
[1] = test system: corn (Zea mays); conditions: for Plant response rating, Corn: scale 0 to 100, 0 no effect, 100 complete control
How it was run: (§1)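 Seeds in loam-sand soil treated preemergence, or plants in peat-based medium sprayed postemergence at 2–18 cm (1- to 4-leaf stage), with compound in a non-phytotoxic solvent mixture containing surfactant. Greenhouse-held 13–15 d, then visually rated against controls on a 0–100 scale (0 = no effect, 100 = complete control); dash = not tested.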

[2] = test system: blackgrass (Alopecurus myosuroides); conditions: for Plant response rating, Blackgrass: scale 0 to 100, 0 no effect, 100 complete control
How it was run: as §1

[3] = test system: crabgrass, large (large crabgrass, Digitaria sanguinalis); conditions: for Plant response rating, Crabgrass, Large: scale 0 to 100, 0 no effect, 100 complete control
How it was run: as §1

[4] = test system: waterhemp (common waterhemp, Amaranthus rudis); conditions: for Plant response rating, Waterhemp: scale 0 to 100, 0 no effect, 100 complete control
How it was run: as §1

[5] = test system: velvetleaf (Abutilon theophrasti); conditions: for Plant response rating, Velvetleaf: scale 0 to 100, 0 no effect, 100 complete control
How it was run: as §1

[6] = test system: Galium (catchweed bedstraw, Galium aparine); conditions: for Plant response rating, Galium: scale 0 to 100, 0 no effect, 100 complete control
How it was run: as §1

[7] = test system: ryegrass, Italian (Italian ryegrass, Lolium multiflorum); conditions: for Plant response rating, Ryegrass, Italian: scale 0 to 100, 0 no effect, 100 complete control
How it was run: as §1

[8] = test system: morningglory (Ipomoea coccinea); conditions: for Plant response rating, Morningglory: scale 0 to 100, 0 no effect, 100 complete control
How it was run: as §1

[9] = test system: soybean (Glycine max); conditions: for Plant response rating, Soybean: scale 0 to 100, 0 no effect, 100 complete control
How it was run: as §1

[10] = test system: wheat (winter wheat, Triticum aestivum); conditions: for Plant response rating, Wheat: scale 0 to 100, 0 no effect, 100 complete control
How it was run: as §1

[11] = test system: oilseed rape (Brassica napus); conditions: for Plant response rating, Oilseed Rape: scale 0 to 100, 0 no effect, 100 complete control
How it was run: as §1

[12] = test system: johnsongrass (Sorghum halepense); conditions: for Plant response rating, Johnsongrass: scale 0 to 100, 0 no effect, 100 complete control
How it was run: as §1

[13] = test system: ragweed (common ragweed, Ambrosia elatior); conditions: for Plant response rating, Ragweed: scale 0 to 100, 0 no effect, 100 complete control
How it was run: as §1

[14] = test system: barnyardgrass (Echinochloa crus-galli); conditions: for Plant response rating, Barnyardgrass: scale 0 to 100, 0 no effect, 100 complete control
How it was run: as §1

[15] = test system: foxtail, giant (giant foxtail, Setaria faberii); conditions: for Plant response rating, Foxtail, Giant: scale 0 to 100, 0 no effect, 100 complete control
How it was run: as §1

[16] = test system: nutsedge, yellow (yellow nutsedge, Cyperus esculentus); conditions: for Plant response rating, Nutsedge, Yellow: scale 0 to 100, 0 no effect, 100 complete control
How it was run: as §1

[17] = test system: lambsquarters (Chenopodium album); conditions: for Plant response rating, Lambsquarters: scale 0 to 100, 0 no effect, 100 complete control
How it was run: as §1

[18] = test system: pigweed (Amaranthus retroflexus); conditions: for Plant response rating, Pigweed: scale 0 to 100, 0 no effect, 100 complete control
How it was run: as §1

[19] = 31 g ai/ha, 0 is no effect, 100 is complete control

Cc1ccc(C2CN(C)C(=O)C2C(=O)Nc2ccccc2S(C)(=O)=O)cc1 (stereo not drawn) [Compound 663]
Plant response rating (scale of 0 to 100), Corn [1, 19]: 0
Plant response rating, Corn ([1]; 62 g ai/ha): 10
Plant response rating, Corn ([1]; 125 g ai/ha): 20
Plant response rating, Corn ([1]; 250 g ai/ha): 60
Plant response rating (scale of 0 to 100), Blackgrass [2, 19]: 20
Plant response rating, Blackgrass ([2]; 62 g ai/ha): 60
Plant response rating, Blackgrass ([2]; 125 g ai/ha): 85
Plant response rating, Blackgrass ([2]; 250 g ai/ha): 95
Plant response rating (scale of 0 to 100), Crabgrass, Large [3, 19]: 95
Plant response rating, Crabgrass, Large ([3]; 62 g ai/ha): 98
Plant response rating, Crabgrass, Large ([3]; 125 g ai/ha): 100
Plant response rating, Crabgrass, Large ([3]; 250 g ai/ha): 100
Plant response rating (scale of 0 to 100), Waterhemp [4, 19]: 50
Plant response rating, Waterhemp ([4]; 62 g ai/ha): 60
Plant response rating, Waterhemp ([4]; 125 g ai/ha): 85
Plant response rating, Waterhemp ([4]; 250 g ai/ha): 90
Plant response rating (scale of 0 to 100), Velvetleaf [5, 19]: 5
Plant response rating, Velvetleaf ([5]; 62 g ai/ha): 15
Plant response rating, Velvetleaf ([5]; 125 g ai/ha): 30
Plant response rating, Velvetleaf ([5]; 250 g ai/ha): 55
Plant response rating (scale of 0 to 100), Galium [6, 19]: 90
Plant response rating, Galium ([6]; 62 g ai/ha): 90
Plant response rating, Galium ([6]; 125 g ai/ha): 85
Plant response rating, Galium ([6]; 250 g ai/ha): 90
Plant response rating (scale of 0 to 100), Ryegrass, Italian [7, 19]: 10
Plant response rating, Ryegrass, Italian ([7]; 62 g ai/ha): 70
Plant response rating, Ryegrass, Italian ([7]; 125 g ai/ha): 50
Plant response rating, Ryegrass, Italian ([7]; 250 g ai/ha): 75
Plant response rating (scale of 0 to 100), Morningglory [8, 19]: 0
Plant response rating, Morningglory ([8]; 62 g ai/ha): 35
Plant response rating, Morningglory ([8]; 125 g ai/ha): 30
Plant response rating, Morningglory ([8]; 250 g ai/ha): 40
Plant response rating (scale of 0 to 100), Soybean [9, 19]: 0
Plant response rating, Soybean ([9]; 62 g ai/ha): 10
Plant response rating, Soybean ([9]; 125 g ai/ha): 0
Plant response rating, Soybean ([9]; 250 g ai/ha): 0
Plant response rating (scale of 0 to 100), Wheat [10, 19]: 0
Plant response rating, Wheat ([10]; 62 g ai/ha): 50
Plant response rating, Wheat ([10]; 125 g ai/ha): 55
Plant response rating, Wheat ([10]; 250 g ai/ha): 90
Plant response rating (scale of 0 to 100), Oilseed Rape [11, 19]: 30
Plant response rating, Oilseed Rape ([11]; 62 g ai/ha): 20
Plant response rating, Oilseed Rape ([11]; 125 g ai/ha): 65
Plant response rating, Oilseed Rape ([11]; 250 g ai/ha): 80
Plant response rating (scale of 0 to 100), Johnsongrass [12, 19]: 0
Plant response rating, Johnsongrass ([12]; 62 g ai/ha): 10
Plant response rating, Johnsongrass ([12]; 125 g ai/ha): 20
Plant response rating, Johnsongrass ([12]; 250 g ai/ha): 40
Plant response rating (scale of 0 to 100), Ragweed [13, 19]: 50
Plant response rating, Ragweed ([13]; 62 g ai/ha): 55
Plant response rating, Ragweed ([13]; 125 g ai/ha): 70
Plant response rating, Ragweed ([13]; 250 g ai/ha): 85
Plant response rating (scale of 0 to 100), Barnyardgrass [14, 19]: 95
Plant response rating, Barnyardgrass ([14]; 62 g ai/ha): 90
Plant response rating, Barnyardgrass ([14]; 125 g ai/ha): 98
Plant response rating, Barnyardgrass ([14]; 250 g ai/ha): 100
Plant response rating (scale of 0 to 100), Foxtail, Giant [15, 19]: 95
Plant response rating, Foxtail, Giant ([15]; 62 g ai/ha): 95
Plant response rating, Foxtail, Giant ([15]; 125 g ai/ha): 98
Plant response rating, Foxtail, Giant ([15]; 250 g ai/ha): 100
Plant response rating (scale of 0 to 100), Nutsedge, Yellow [16, 19]: 0
Plant response rating, Nutsedge, Yellow ([16]; 62 g ai/ha): 0
Plant response rating, Nutsedge, Yellow ([16]; 125 g ai/ha): 0
Plant response rating, Nutsedge, Yellow ([16]; 250 g ai/ha): 50
Plant response rating (scale of 0 to 100), Lambsquarters [17, 19]: 70
Plant response rating, Lambsquarters ([17]; 62 g ai/ha): 60
Plant response rating, Lambsquarters ([17]; 125 g ai/ha): 65
Plant response rating, Lambsquarters ([17]; 250 g ai/ha): 85
Plant response rating (scale of 0 to 100), Pigweed [18, 19]: 70
Plant response rating, Pigweed ([18]; 62 g ai/ha): 60
Plant response rating, Pigweed ([18]; 125 g ai/ha): 70
Plant response rating, Pigweed ([18]; 250 g ai/ha): 75

From patent US12077503B2, “Substituted cyclic amides and their use as herbicides” (FMC CORPORATION, priority 2015, dated 2024)
